Data published in patent US9539260B2, “Dihydro-benzo-oxazine and dihydro-pyrido-oxazine derivatives” (Novartis AG, priority 2012, dated 2017).

Legend:
[1] = biological target: PI3K delta (Homo sapiens (Human), UniProt O00329); test: Enzymatic PI3K delta isoform inhibition (lipid kinase activity, Kinase-Glo luminescence); assay type: biochemical; conditions: Enzymatic assay
Experimental: (§1) 1.1 Test of Lipid Kinase Activity […]
(§2) In a more preferred assay, the kinase reaction is performed in a final volume of 10 μl per well of a low volume non-binding CORNING, 384 well black plate (Cat. No. #3676). The final concentrations of ATP and phosphatidyl inositol (PI) in the assay are 1 μM and 10 μg/mL, respectively. The reaction is started by the addition of ATP.
(§3) The components of the assay are added per well as follows:
(§4) The Z′ value is a universal measurement of the robustness of an assay. A Z′ between 0.5 and 1.0 is considered an excellent assay.
(§5) IC50 is determined by a four parameter curve fitting routine that comes along with “excel fit”. A four parameter logistic equation is used to calculate IC50 values (IDBS XLfit) of the percentage inhibition of each compound at 8 concentrations (usually 10, 3.0, 1.0, 0.3, 0.1, 0.030, 0.010 and 0.003 μM). Alternatively, IC50 values are calculated using idbsXLfit model 204, which is a 4 parameter logistic model.
(§6) Yet alternatively, for an ATP depletion assay, compounds of the formula I to be tested are dissolved in DMSO and directly distributed into a white 384-well plate at 0.5 μl per well. To start the reaction, 10 μl of 10 nM PI3 kinase and 5 μg/mL 1-alpha-phosphatidylinositol (PI) are added into each well followed by 10 μl of 2 μM ATP. The reaction is performed until approx 50% of the ATP is depleted, and then stopped by the addition of 20 μl of Kinase-Glo solution (Promega Corp., Madison, Wis., USA). The stopped reaction is incubated for 5 minutes and the remaining ATP is then detected via luminescence. IC50 values are then determined.

[2] = biological target: PI3K alpha (Homo sapiens (Human), UniProt P42336); test: Enzymatic PI3K alpha isoform inhibition (lipid kinase activity, Kinase-Glo luminescence); assay type: biochemical; conditions: Enzymatic assay
Sequence of PI3K alpha (P42336 other isoform, or with tags, fused parts or gaps): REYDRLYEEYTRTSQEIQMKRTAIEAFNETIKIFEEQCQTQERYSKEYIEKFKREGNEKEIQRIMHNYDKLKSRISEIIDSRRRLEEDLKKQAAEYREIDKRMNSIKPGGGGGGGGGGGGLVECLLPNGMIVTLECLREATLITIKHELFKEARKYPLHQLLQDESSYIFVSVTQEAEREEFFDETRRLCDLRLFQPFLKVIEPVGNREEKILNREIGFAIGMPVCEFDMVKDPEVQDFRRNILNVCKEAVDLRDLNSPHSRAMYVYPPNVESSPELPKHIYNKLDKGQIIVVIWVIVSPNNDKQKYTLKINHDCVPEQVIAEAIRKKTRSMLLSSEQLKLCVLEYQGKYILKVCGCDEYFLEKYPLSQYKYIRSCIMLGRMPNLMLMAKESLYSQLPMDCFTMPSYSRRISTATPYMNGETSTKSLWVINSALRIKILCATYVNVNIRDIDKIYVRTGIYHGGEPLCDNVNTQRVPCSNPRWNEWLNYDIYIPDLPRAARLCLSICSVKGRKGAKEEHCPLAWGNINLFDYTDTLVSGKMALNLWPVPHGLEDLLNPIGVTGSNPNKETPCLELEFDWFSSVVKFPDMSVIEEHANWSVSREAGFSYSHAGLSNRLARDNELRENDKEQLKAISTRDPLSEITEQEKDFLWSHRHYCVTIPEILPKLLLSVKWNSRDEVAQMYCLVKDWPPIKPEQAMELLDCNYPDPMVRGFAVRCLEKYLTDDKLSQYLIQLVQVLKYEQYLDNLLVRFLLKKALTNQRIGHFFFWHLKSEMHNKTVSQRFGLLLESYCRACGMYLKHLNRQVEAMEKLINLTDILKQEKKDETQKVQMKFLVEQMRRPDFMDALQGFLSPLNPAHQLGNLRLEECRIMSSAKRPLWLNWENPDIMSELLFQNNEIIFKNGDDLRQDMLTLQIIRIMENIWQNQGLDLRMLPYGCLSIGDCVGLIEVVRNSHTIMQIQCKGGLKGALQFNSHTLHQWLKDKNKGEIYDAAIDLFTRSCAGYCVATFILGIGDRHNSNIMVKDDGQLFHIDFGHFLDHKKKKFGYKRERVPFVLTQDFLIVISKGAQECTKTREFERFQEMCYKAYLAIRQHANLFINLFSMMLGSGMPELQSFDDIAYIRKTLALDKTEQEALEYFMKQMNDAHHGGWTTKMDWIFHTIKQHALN
Experimental: as §1, §2, §3, §4, §5, §6

Sequence of PI3K delta (O00329 other isoform, or with tags, fused parts or gaps linker GGGGGG): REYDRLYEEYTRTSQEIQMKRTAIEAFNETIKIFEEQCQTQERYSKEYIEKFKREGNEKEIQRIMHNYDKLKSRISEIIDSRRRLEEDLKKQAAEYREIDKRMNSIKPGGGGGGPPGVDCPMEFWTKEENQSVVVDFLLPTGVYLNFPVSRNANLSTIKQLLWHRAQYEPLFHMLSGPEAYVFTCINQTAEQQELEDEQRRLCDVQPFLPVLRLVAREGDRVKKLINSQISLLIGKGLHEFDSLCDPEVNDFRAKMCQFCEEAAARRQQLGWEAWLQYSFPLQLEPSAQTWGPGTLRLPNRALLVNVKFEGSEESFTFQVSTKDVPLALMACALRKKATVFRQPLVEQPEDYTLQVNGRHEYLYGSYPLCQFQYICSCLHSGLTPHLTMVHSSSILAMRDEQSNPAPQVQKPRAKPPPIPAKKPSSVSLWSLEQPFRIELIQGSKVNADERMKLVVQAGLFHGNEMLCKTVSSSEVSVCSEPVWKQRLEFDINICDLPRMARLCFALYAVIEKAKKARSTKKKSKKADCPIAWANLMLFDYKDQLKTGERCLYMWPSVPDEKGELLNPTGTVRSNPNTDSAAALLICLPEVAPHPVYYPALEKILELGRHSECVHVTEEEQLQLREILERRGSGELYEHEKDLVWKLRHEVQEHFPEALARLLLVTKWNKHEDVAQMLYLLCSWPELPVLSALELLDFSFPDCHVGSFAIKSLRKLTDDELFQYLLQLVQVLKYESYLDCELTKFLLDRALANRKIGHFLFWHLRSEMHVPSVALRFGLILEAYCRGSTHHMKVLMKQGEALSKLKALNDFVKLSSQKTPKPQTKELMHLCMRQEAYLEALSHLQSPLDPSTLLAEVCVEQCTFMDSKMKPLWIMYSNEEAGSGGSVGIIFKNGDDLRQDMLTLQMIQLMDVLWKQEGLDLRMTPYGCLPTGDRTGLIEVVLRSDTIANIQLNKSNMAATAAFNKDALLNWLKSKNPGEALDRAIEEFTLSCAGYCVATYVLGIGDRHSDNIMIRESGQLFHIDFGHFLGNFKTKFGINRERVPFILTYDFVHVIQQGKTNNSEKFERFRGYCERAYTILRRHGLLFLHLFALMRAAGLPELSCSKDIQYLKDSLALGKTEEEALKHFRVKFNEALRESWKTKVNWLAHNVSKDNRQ

Row | Compound | IC50 [1] | IC50 [2]
1 | COc1ncc(N2CCOc3ccc(O[C@H]4CCN(C(=O)c5cn[nH]c5)C4)cc32)cc1C#N [Example C10, 2-Methoxy-5-{6-[(S)-1-(1H-pyrazole-4-carbonyl)-pyrrolidin-3-yloxy]-2,3-dihydro-benzo[1,4]oxazin-4-yl}-nicotinonitrile] | 15 nM | 147 nM
2 | O=C(C1CCOCC1)N1CC[C@H](Oc2ccc3c(c2)N(c2ccnc(C(F)(F)F)c2)CCO3)C1 [Example A21, (Tetrahydro-pyran-4-yl)-{(S)-3-[4-(2-trifluoromethyl-pyridin-4-yl)-3,4-dihydro-2H-benzo[1,4]oxazin-6-yloxy]-pyrrolidin-1-yl}-methanone] |  | 8430 nM
3 | COc1ncc(N2CCOc3ccc(O[C@H]4CCN(C(=O)[C@@H]5CCN(C(C)=O)C5)C4)cc32)cc1C [Example B122, 1-((R)-3-{(S)-3-[4-(6-Methoxy-5-methyl-pyridin-3-yl)-3,4-dihydro-2H-benzo[1,4]oxazin-6-yloxy]-pyrrolidine-1-carbonyl}-pyrrolidin-1-yl)-ethanone] | 24 nM | 425 nM
4 | COCCC(=O)N1CC[C@H](Oc2ccc3c(c2)N(c2cnc(OC)c(F)c2)CCO3)C1 [Example B114, 1-{(S)-3-[4-(5-Fluoro-6-methoxy-pyridin-3-yl)-3,4-dihydro-2H-benzo[1,4]oxazin-6-yloxy]-pyrrolidin-1-yl}-3-methoxy-propan-1-one] | 71 nM | 1440 nM
5 | CCS(=O)(=O)c1ccc(N2CCOc3ccc(O[C@H]4CCN(C(=O)C5CCOCC5)C4)cc32)cn1 [Example B87, {(S)-3-[4-(6-Ethanesulfonyl-pyridin-3-yl)-3,4-dihydro-2H-benzo[1,4]oxazin-6-yloxy]-pyrrolidin-1-yl}-(tetrahydro-pyran-4-yl)-methanone] | 29 nM | 7090 nM
6 | COc1cc(N2CCOc3ccc(O[C@H]4CCN(C(=O)C5CCS(=O)(=O)C5)C4)cc32)cnc1OC (stereo partly drawn) [Example B41, {(S)-3-[4-(5,6-Dimethoxy-pyridin-3-yl)-3,4-dihydro-2H-benzo[1,4]oxazin-6-yloxy]-pyrrolidin-1-yl}-(1,1-dioxo-tetrahydro-1lambda*6*-thiophen-3-yl)-methanone] | 25 nM | 421 nM
7 | Cc1cc(N2CCOc3ccc(O[C@H]4CCN(C(=O)c5cncnc5)C4)cc32)cnc1S(C)(=O)=O [Example B23, {(S)-3-[4-(6-Methanesulfonyl-5-methyl-pyridin-3-yl)-3,4-dihydro-2H-benzo[1,4]oxazin-6-yloxy]-pyrrolidin-1-yl}-pyrimidin-5-yl-methanone] | 28 nM | 1000 nM
8 | COC(=O)N1CC[C@H](Oc2ccc3c(c2)N(c2cnc(OC)c(C#N)c2)CCO3)C1 [Example D11, (S)-3-[4-(5-Cyano-6-methoxy-pyridin-3-yl)-3,4-dihydro-2H-benzo[1,4]oxazin-6-yloxy]-pyrrolidine-1-carboxylic acid methyl ester] | 19 nM | 442 nM
9 | COc1ncc(N2CCOc3ccc(O[C@H]4CCN(C(=O)CC(C)C)C4)cc32)cc1C#N [Example D10, 2-Methoxy-5-{6-[(S)-1-(3-methyl-butyryl)-pyrrolidin-3-yloxy]-2,3-dihydro-benzo[1,4]oxazin-4-yl}-nicotinonitrile] | 62 nM | 385 nM
10 | COc1ncc(N2CCOc3ccc(O[C@H]4CCN(C(=O)c5cnco5)C4)cc32)cc1Cl [Example B108, {(S)-3-[4-(5-Chloro-6-methoxy-pyridin-3-yl)-3,4-dihydro-2H-benzo[1,4]oxazin-6-yloxy]-pyrrolidin-1-yl}-oxazol-5-yl-methanone] | < 3 nM | 94 nM
11 | CCC(=O)N1C[C@@H](Oc2ccc3c(c2)N(c2cnc(OC)c(C#N)c2)CCO3)CO1 [Example D23, 2-Methoxy-5-[6-((R)-2-propionyl-isoxazolidin-4-yloxy)-2,3-dihydro-benzo[1,4]oxazin-4-yl]-nicotinonitrile] | 214 nM | 2530 nM
12 | COc1cc(N2CCOc3ccc(O[C@H]4CCN(C(=O)C5CCOCC5)C4)cc32)ccn1 [Example A22, {(S)-3-[4-(2-Methoxy-pyridin-4-yl)-3,4-dihydro-2H-benzo[1,4]oxazin-6-yloxy]-pyrrolidin-1-yl}-(tetrahydro-pyran-4-yl)-methanone] | 21 nM | 757 nM
13 | COCC(=O)N1CC[C@H](Oc2cc3c(cn2)OCCN3c2cnc(S(C)(=O)=O)c(C(F)F)c2)C1 [Example F11, 1-{(S)-3-[1-(5-Difluoromethyl-6-methanesulfonyl-pyridin-3-yl)-2,3-dihydro-1H-pyrido[3,4-b][1,4]oxazin-7-yloxy]-pyrrolidin-1-yl}-2-methoxy-ethanone] | 76 nM | 78 nM
14 | CN(C)c1cc(N2CCOc3ccc(O[C@H]4CCN(C(=O)C5CCOCC5)C4)cc32)cnc1S(C)(=O)=O [Example B78, {(S)-3-[4-(5-Dimethylamino-6-methanesulfonyl-pyridin-3-yl)-3,4-dihydro-2H-benzo[1,4]oxazin-6-yloxy]-pyrrolidin-1-yl}-(tetrahydro-pyran-4-yl)-methanone] |  | 243 nM
15 | COc1ncc(N2CCOc3ccc(O[C@H]4CCN(C(=O)c5cnon5)C4)cc32)cc1C#N [Example C7, 5-{6-[(S)-1-(Furazan-3-carbonyl)-pyrrolidin-3-yloxy]-2,3-dihydro-benzo[1,4]oxazin-4-yl}-2-methoxy-nicotinonitrile] |  | > 9100 nM
16 | CCC(=O)N1CC[C@H](Oc2ccc3c(c2)N(c2ccnc(C#N)c2)CCO3)C1 [Example B3, 4-[6-((S)-1-Propionyl-pyrrolidin-3-yloxy)-2,3-dihydro-benzo[1,4]oxazin-4-yl]-pyridine-2-carbonitrile] |  | > 9100 nM
17 | [2H]C1([2H])COc2ccc(O[C@H]3CCN(C(=O)c4cn(C)cn4)C3)cc2N1c1cnc(OC)c(C#N)c1 [Example B30, 2-Methoxy-5-{6-[(S)-1-(1-methyl-1H-imidazole-4-carbonyl)-pyrrolidin-3-yloxy]-3,3-dideutero-2,3-dihydro-benzo[1,4]oxazin-4-yl}-nicotinonitrile] | 15.5 nM | 
18 | COCc1ccc(N2CCOc3ccc(O[C@H]4CCN(C(=O)C5CCOCC5)C4)cc32)cn1 [Example A20, {(S)-3-[4-(6-Methoxymethyl-pyridin-3-yl)-3,4-dihydro-2H-benzo[1,4]oxazin-6-yloxy]-pyrrolidin-1-yl}-(tetrahydro-pyran-4-yl)-methanone] |  | > 9100 nM
19 | COc1ncc(N2CCOc3ccc(O[C@H]4CCN(C(=O)C5CCC(OC)CC5)C4)cc32)cc1C#N (single isomer, unassigned) [Example D36] |  | 346 nM
20 | COc1ncc(N2CCOc3ccc(O[C@H]4CCN(C(=O)CN5CCOCC5)C4)cc32)cc1C#N [Example D7, 2-Methoxy-5-{6-[(S)-1-(2-morpholin-4-yl-acetyl)-pyrrolidin-3-yloxy]-2,3-dihydro-benzo[1,4]oxazin-4-yl}-nicotinonitrile] |  | 234 nM
21 | CCC(=O)N1CC[C@H](Oc2ccc3c(c2)N(c2ccc(OC)c(S(=O)(=O)N4CCOCC4)c2)CCO3)C1 [Example A25, 1-((S)-3-{4-[4-Methoxy-3-(morpholine-4-sulfonyl)-phenyl]-3,4-dihydro-2H-benzo[1,4]oxazin-6-yloxy}-pyrrolidin-1-yl)-propan-1-one] |  | 5760 nM
22 | COc1ncc(N2CCOc3ccc(O[C@H]4CCN(C(=O)C5CCN(C)CC5)C4)cc32)cc1C#N [Example D14, 2-Methoxy-5-{6-[(S)-1-(1-methyl-piperidine-4-carbonyl)-pyrrolidin-3-yloxy]-2,3-dihydro-benzo[1,4]oxazin-4-yl}-nicotinonitrile] |  | 415 nM
23 | Cc1ncc(N2CCOc3ccc(O[C@H]4CCN(C(=O)C5CCOCC5)C4)cc32)cc1[N+](=O)[O-] [Example A4, {(S)-3-[4-(6-Methyl-5-nitro-pyridin-3-yl)-3,4-dihydro-2H-benzo[1,4]oxazin-6-yloxy]-pyrrolidin-1-yl}-(tetrahydro-pyran-4-yl)-methanone] |  | > 9100 nM
24 | COc1ncc(N2CCOc3ccc(N[C@H]4CCN(C(=O)C5CCOCC5)C4)cc32)cc1C#N [Y, 2-Methoxy-5-{6-[(S)-1-(tetrahydro-pyran-4-carbonyl)-pyrrolidin-3-ylamino]-2,3-dihydro-benzo[1,4]oxazin-4-yl}-nicotinonitrile] |  | 1920 nM
25 | COc1ncc(N2CCOc3ccc(O[C@H]4CCN(C(=O)C5CCOCC5)C4)cc32)cc1C#N [Example D4, 2-Methoxy-5-{6-[(S)-1-(tetrahydro-pyran-4-carbonyl)-pyrrolidin-3-yloxy]-2,3-dihydro-benzo[1,4]oxazin-4-yl}-nicotinonitrile] |  | 236 nM
26 | CCC(=O)N1CC[C@H](Oc2ccc3c(c2)N(c2ccc(OC)c(S(=O)(=O)N4CCN(C)CC4)c2)CCO3)C1 [Example A27, 1-((S)-3-{4-[4-Methoxy-3-(4-methyl-piperazine-1-sulfonyl)-phenyl]-3,4-dihydro-2H-benzo[1,4]oxazin-6-yloxy}-pyrrolidin-1-yl)-propan-1-one] |  | > 9100 nM
